From patent US20040019026A1, “Compounds useful for treating hypertriglyceridemia” (priority 2000, published 2004)

What was measured:
[1] = system: male BKS.Cg-m+/+Leprdb mice; experiment: Mortality during treatment of diabetic mice (Example 9); assay type: in vivo
Syndrome X patients = experiment: Randomized double-blind crossover trial in Syndrome X patients (Example 5c); assay type: in vivo, human; settings: 600 mg twice daily, four weeks
Source text: Eleven patients were enrolled in the trial. The average age was 50.2±12.8 years, and there were 10 males and 1 patient enrolled. Body weight and body mass index were 87.8±17.9 kg and 27.7±3.0 kg/m^2, respectively. All patients carried a diagnosis of dyslipidemia, including elevated triglycerides, for an average of 11.7±6.4 years.
In this randomized, double-blind, crossover study, the 11 patients underwent eligibility screening (physical exam, medical history, laboratory evaluation, PSA, TSH), followed by a six-week lead-in phase (study weeks 1-6) that included diet (AHA Step II), and discontinuation of lipid-lowering therapy. At week 4, qualifying lipid testing was performed, followed by randomization to study treatment two weeks later. Four-weeks of each of the two study treatments, fluasterone 600 mg twice daily or placebo, were then administered (weeks 7 thru 10 and 15 thru 18), separated by a 4-week washout period. At baseline, and at the end of each treatment period measurement of total serum cholesterol, triglycerides, apolipoprotein A1, and the cholesterol and triglyceride content of VLDL, LDL, and HDL was done.
The baseline triglyceride level (mg/dL) was 509±184 and the baseline HDL level (mg/dL) was 33.0±3.5.

human patients = experiment: 14-day multiple dose study, 1600 mg daily: plasma triglycerides and fasting plasma glucose (Example 1); assay type: in vivo
Method: Twelve patients were treated with 16α-fluoro-5-androstene-17-one.
Smoking and intake of xanthine-containing beverages or food (coffee, tea, cola, chocolate) and alcohol within 24 hours, before and during the stay in the clinical research facilities were not allowed.
The human patients received 1600 mg of 16α-fluoro-5-androstene-17-one daily. Controls were set up so that they received 1600 mg of placebo. The triglyceride concentration in the plasma were measured pretreatment and at the end of the study. There was a significant triglyceride-lowering effect caused by the drug in the 14-day, multiple dose, study.
In 12 patients (excluding 2 placebos) receiving 1600 mg of 16α-fluoro-5-androsten-17-one daily, 4 patients, 3 males and one person, had pretreatment triglyceride levels>200 mg/dL. In this group of 4 patients there was a highly significant reduction in triglyceride values, whereas there was no apparent effect in the 8 patients with non-elevated triglycerides. The decline in one patient was additionally quite striking. […]
In addition, the fasting plasma glucose (FPG) levels were also measured in the patients before and after treatment. In the study, 3 of the 4 patients with elevated triglycerides had pre-treatment FPG levels>6.1 mM. The American Diabetes Association (ADA) has recently classified individuals with FPG of 6.1-6.9 mM as having impaired fasting glucose (IFG). Such individuals have 40% probability of developing ADA criteria for diabetes within 5 years.

[2] = system: male BKS.Cg-m+/+Leprdb mice; experiment: Fasting plasma triglyceride levels in diabetic mice (Example 9); assay type: in vivo
Source text: Eight week old male BKS.Cg-m^+/+Lepr^db mice were obtained from Jackson Laboratories. These mice have a point mutation in the leptin receptor gene and produce a truncated receptor with impaired signaling capacity. These animals are severely insulin resistant and manifest an uncontrolled rise in blood sugar, severe depletion of the insulin-producing beta-cells of the pancreatic islets, and death by 10 months of age. The male animals also have very low plasma testosterone levels and as a consequence undeveloped seminal vesicle glands. Administration of androgens to these mice produces an increase in seminal vesicle weights similar to that seen in castrated males. Thus these animals can be used to assess androgenic potency of various compounds.
A week later, the mice were treated subcutaneously (s.c.) with 0.05 mL fluasterone (16α-fluoro-5-androsten-17-one) suspended in an Emulphor-saline vehicle to give either a dose of 5 mg/kg s.c. or 20 mg/kg s.c. or intraperitoneally (i.p.) with 0.05 mL of fluasterone suspended in an Emulphor-saline vehicle to give a dose of 5 mg/kg. The Control mice received the Emulphor-saline vehicle s.c.
All the mice were anesthetized lightly with isoflurane before treatment with fluasterone to minimize the risk of stressing the mice while giving the s.c. dose. Their food was removed the afternoon before administration with drug and the chow was to the mice the next morning immediately after treatment. All the mice had their chow removed daily and restored just after fluasterone administration. During the week, the mice had access to chow for approximately 6½ hours, while on the weekends, the mice had approximately 4½ hours of access to chow. Mice were treated daily (weekdays and weekends).
Plasma triglyceride levels were determined with a Sigma kit (334-UV ). The determination is based on the enzymatic hydrolysis of triglycerides to glycerol and free fatty acids by lipase. Glycerol is subsequently phosphorylated by ATP to produce glycerol-1-phosphate and ADP. ATP is regenerated by a pyruvate kinase-catalyzed reaction between ADP and phosphoenol pyruvate. […] NADH absorbs at 340 nm, thus the decrease in absorbance, measured at this wavelength, is directly proportional to the triglyceride concentration in the sample.
Triglyceride Reagent A (containing ATP, lactate dehydrogenase, lipase, NADH, phosphoenol pyruvate, pyruvate kinase) and Triglyceride Reagent B were reconstituted with 10 mL and 2 mL of distilled water respectively. The Sample Regent is prepared by adding 0.25 mL of Triglyceride Reagent B to 10 mL of Triglyceride Reagent A. Blank, standards (50, 100 and 200 mg/dL) and sample tubes were prepared. One mL of Sample Reagent is added to all tubes. To the Blank tube, 20 μL of distilled water is added. For each Sample tube, 20 μL of plasma is added to the tube. All tubes were incubated at room temperature for 10 minutes. The tubes were read against a Reference containing distilled water. Triglyceride concentration in the samples were calculated by subtracting the absorbance of the Sample from the absorbance of the Blank and using the following formula: […]

## C[C@]12CCCCC1=CC[C@@H]1[C@@H]2CC[C@]2(C)C(=O)[C@H](F)C[C@@H]12 [fluasterone, 16α-fluoro-5-androsten-17-one]
[1]; 5 mg/kg, i.p. group, about two weeks later
  Mortality (mice died): 1 mouse
[1]; 200 mg/kg oral group, about 17 days later
  Mortality (mice died): 1 mouse
Syndrome X patients; baseline 33.0±3.5 mg/dL, p=0.068 vs placebo
  Change in HDL levels, least square means±S.E.M.: −5.8±4.1
Syndrome X patients; baseline 509±184 mg/dL, p<0.005 vs placebo
  Change in triglyceride levels, least square means±S.E.M.: −165±76
Human patients; Elevated Triglyceride Group, Female (1), pretreatment
  Plasma triglyceride Conc.: 540 ± 42 (n = 2) mg/dL
Human patients; Elevated Triglyceride Group, Female (1), treatment 1600 mg daily, 14-day study
  Plasma triglyceride Conc.: 118 ± 19 (n = 3) mg/dL
Human patients; Elevated Triglyceride Group, Female and Male (4), pretreatment
  Plasma triglyceride Conc.: 385 ± 116 (n = 8) mg/dL
Human patients; Elevated Triglyceride Group, Female and Male (4), treatment 1600 mg daily, 14-day study
  Plasma triglyceride Conc.: 154 ± 57 (n = 11) mg/dL
Human patients; Elevated Triglyceride Group, Male (3), pretreatment
  Plasma triglyceride Conc.: 333 ± 75 (n = 6) mg/dL
Human patients; Elevated Triglyceride Group, Male (3), treatment 1600 mg daily, 14-day study
  Plasma triglyceride Conc.: 168 ± 61 (n = 8) mg/dL
Human patients; Normal Triglyceride Group (8 patients), pretreatment
  Plasma triglyceride Conc.: 106 ± 34 (n = 16) mg/dL
Human patients; Normal Triglyceride Group (8 patients), treatment 1600 mg daily, 14-day study
  Plasma triglyceride Conc.: 128 ± 77 (n = 23) mg/dL
Human patients; pretreatment
  FPG levels of individuals with IFG: 6.28 ± 0.33 (6) mM
Human patients; treatment 1600 mg daily, p < 0.02
  FPG levels of individuals with IFG: 5.63 ± 0.45 (8) (p < 0.02) mM
[2]; 5 mg/kg i.p., treatment day 0
  Fasting Plasma Triglyceride Levels: 136 ± 38.4 mg/dL
[2]; 5 mg/kg i.p., treatment day 7, less than s.c. Control, p < 0.02
  Fasting Plasma Triglyceride Levels: 91.1 ± 14.5^2 mg/dL
[2]; 5 mg/kg i.p., treatment day 14, less than s.c. Control, p < 0.01
  Fasting Plasma Triglyceride Levels: 115 ± 14.2^4 mg/dL
[2]; 5 mg/kg i.p., treatment day 17
  Fasting Plasma Triglyceride Levels: 116 ± 17.0 mg/dL
[2]; 5 mg/kg s.c., treatment day 0
  Fasting Plasma Triglyceride Levels: 126 ± 20.9 mg/dL
[2]; 5 mg/kg s.c., treatment day 7, less than s.c. Control, p < 0.02
  Fasting Plasma Triglyceride Levels: 115 ± 33.3^2 mg/dL
[2]; 5 mg/kg s.c., treatment day 14, less than s.c. Control, p < 0.01
  Fasting Plasma Triglyceride Levels: 115 ± 15.7^4 mg/dL
[2]; 5 mg/kg s.c., treatment day 17
  Fasting Plasma Triglyceride Levels: 115 ± 13.7 mg/dL
[2]; 200 mg/kg oral, treatment day 0
  Fasting Plasma Triglyceride Levels: 126 ± 18.6 mg/dL
[2]; 200 mg/kg oral, treatment day 7, less than oral Control, p < 0.01
  Fasting Plasma Triglyceride Levels: 107 ± 38.9^1 mg/dL
[2]; 200 mg/kg oral, treatment day 14, less than oral Control, p < 0.001
  Fasting Plasma Triglyceride Levels: 95.7 ± 15.6^3 mg/dL
[2]; 200 mg/kg oral, treatment day 17, less than oral Control, p < 0.001
  Fasting Plasma Triglyceride Levels: 100 ± 13.1^3 mg/dL
